ChEMBL document CHEMBL1144892, “Synthesis and biological activity of various derivatives of a novel class of potent, selective, and orally active prostaglandin D2 receptor antagonists. 2. 6,6-Dimethylbicyclo[3.1.1]heptane derivatives” (J Med Chem, 2003)

Legend:
[1] = target: T1, Prostaglandin D2 receptor (Homo sapiens, UniProt Q13258); assay: Concentration required to inhibit the PGD-2 evoked cAMP formation in human platelets; type: functional
T1 sequence (Q13258 whole entry): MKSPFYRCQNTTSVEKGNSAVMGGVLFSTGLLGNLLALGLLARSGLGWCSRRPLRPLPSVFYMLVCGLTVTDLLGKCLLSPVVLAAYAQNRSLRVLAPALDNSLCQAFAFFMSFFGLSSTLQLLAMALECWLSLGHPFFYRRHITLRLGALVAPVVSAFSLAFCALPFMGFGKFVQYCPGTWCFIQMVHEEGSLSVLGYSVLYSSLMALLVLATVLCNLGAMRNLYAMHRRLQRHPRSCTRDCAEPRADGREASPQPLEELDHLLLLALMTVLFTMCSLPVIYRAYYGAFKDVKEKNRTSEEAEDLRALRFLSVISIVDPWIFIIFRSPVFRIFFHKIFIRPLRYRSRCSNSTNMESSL

[2] = target: T1, Prostaglandin D2 receptor; assay: Prostaglandin D2 receptor antagonist activity, evaluated by inhibition of [3H]PGD-2 binding to human platelet membranes
Cavia porcellus [3] = assay: Compound at 10 mg/kg was tested for the inhibition of increase in eosinophil number in bronchoalveolar lavage fluid at 72 hr after inhalation of aerosol antigen in actively sensitized guinea pig; type: functional; settings: Lung, inhaled or nasal
Cavia porcellus [4] = assay: Percent inhibition against increase in specific airway resistance by antigen inhalation in conscious guinea pig administered perorally with 10 mg/Kg of compound, 1 hr before the test; type: functional
Cavia porcellus [5] = assay: Effective dose required to inhibit conjuctival microvascular permeability caused by topical application of 0.1% antigen in guinea pig administered perorally with compound, 1 hour before the test; type: functional
Cavia porcellus [6] = assay: Compound at 10 mg/kg was tested for the inhibition of increase in eosinophil number in nasal lavage fluid at 5 hr after intranasal antigen challenge in actively sensitized guinea pig; type: functional; settings: inhaled or nasal
Cavia porcellus [7] = assay: In vivo inhibition of antigen-induced increase in intranasal pressure in actively sensitized guinea pig administered perorally with 10 mg/Kg compound, 10 minutes before the antigen challenge; type: functional; settings: oral
Cavia porcellus [8] = assay: In vivo inhibition of antigen-induced increase in intranasal pressure in actively sensitized guinea pig administered perorally with 3 mg/Kg compound, 10 minutes before the antigen challenge; type: functional; settings: inhaled or nasal
Cavia porcellus [9] = assay: Effective dose required to inhibit conjuctival microvascular permeability caused by topical application of 0.1% PGD-2 in guinea pig administered perorally with compound, 1 hour before the test; type: functional
Cavia porcellus [10] = assay: In vivo percent inhibition against antigen induced increase in intranasal pressure in actively sensitized guinea pig administered intravenously with 1 mg/Kg of compound; type: functional
Cavia porcellus [11] = assay: In vivo inhibition of antigen-induced increase in intranasal pressure in actively sensitized guinea pig administered intravenously with 1 mg/Kg compound, 10 minutes before the antigen challenge; type: functional

| Compound | IC50 [1] [nM] | IC50 [2] [nM] | also measured |
| --- | --- | --- | --- |
| CC1(C)[C@H]2C[C@H](CC(=O)CCCCC(=O)O)[C@@H](NC(=O)c3ccsc3)[C@@H]1C2 | > 1000 | > 10000 | – |
| COc1ccc(C(=O)N[C@@H]2[C@@H](C/C=C/CCCC(=O)O)C[C@H]3C[C@@H]2C3(C)C)cc1 | 190 | 3900 | – |
| CC1(C)[C@H]2C[C@H](C/C=C/CCCc3nnn[nH]3)[C@@H](NC(=O)c3ccsc3)[C@@H]1C2 | 93 | – | – |
| Cn1ccc(C(=O)N[C@@H]2[C@@H](C/C=C/CCCC(=O)O)C[C@H]3C[C@@H]2C3(C)C)c1 | 110 | 420 | – |
| CC1(C)[C@H]2C[C@H](C/C=C/CCCC(=O)O)[C@@H](NC(=O)c3csc4ccc(O)cc34)[C@@H]1C2 | 0.9 | 1.9 | inhibition in vivo at 10 mg/kg (Cavia porcellus [3]): 43%; Inhibition (Cavia porcellus [4]): 70%; ED50 (Cavia porcellus [5]): 2 mg/kg; inhibition in vivo at 10 mg/kg (Cavia porcellus [6]): 80%; inhibition in vivo at 10 mg/kg (Cavia porcellus [7]): 96%; inhibition in vivo at 3 mg/kg (Cavia porcellus [8]): 64%; ED50 (Cavia porcellus [9]): 0.12 mg/kg |
| Cc1sccc1C(=O)N[C@@H]1[C@@H](C/C=C/CCCC(=O)O)C[C@H]2C[C@@H]1C2(C)C | 20 | 180 | – |
| CC1(C)[C@H]2C[C@H](C/C=C/CCCC(=O)O)[C@@H](NC(=O)c3ccc(O)cc3)[C@@H]1C2 | 240 | 3400 | – |
| Cc1scc(C(=O)N[C@@H]2[C@@H](C/C=C/CCCC(=O)O)C[C@H]3C[C@@H]2C3(C)C)c1-c1ccccc1 | 74 | 590 | – |
| CC1(C)[C@H]2C[C@H](C/C=C/CCCC(=O)O)[C@@H](NC(=O)c3csc4ccc(NS(C)(=O)=O)cc34)[C@@H]1C2 | 30 | 7500 | – |
| CC1(C)[C@H]2C[C@H](NS(=O)(=O)c3ccc(-c4ccccc4)cc3)[C@@H](C/C=C\CCCC(=O)O)[C@@H]1C2 | > 1000 | 1300 | – |
| CC1(C)[C@H]2C[C@@H](NS(=O)(=O)c3ccc(-c4ccccc4)cc3)[C@H](C/C=C\CCCC(=O)O)[C@@H]1C2 | > 1000 | 1300 | – |
| CC1(C)[C@H]2C[C@H](C/C=C/CCCC(=O)O)[C@@H](NC(=O)c3c[nH]c4ccccc34)[C@@H]1C2 | 110 | 520 | – |
| CC1(C)[C@H]2C[C@H](C/C=C\CCCC(=O)O)[C@@H](NS(=O)(=O)c3ccc(-c4ccccc4)cc3)[C@@H]1C2 | 530 | 1200 | – |
| CC1(C)[C@H]2C[C@H](C/C=C/CCCC(=O)O)[C@@H](NC(=O)c3cccs3)[C@@H]1C2 | 15 | 3300 | Inhibition (Cavia porcellus [10]): 38% |
| CC1(C)[C@H]2C[C@H](C/C=C/CCCC(=O)O)[C@@H](NC(=O)c3csc(-c4ccccc4)c3)[C@@H]1C2 | 100 | 42 | – |
| CC1(C)[C@H]2C[C@H](C/C=C\CCCC(=O)O)[C@@H](NC(=O)c3ccc(-c4ccccc4)cc3)[C@@H]1C2 | 470 | 47 | inhibition in vivo at 1 mg/kg (Cavia porcellus [11]): 30% |
| CC1(C)[C@H]2C[C@H](C/C=C\CCCC(=O)O)[C@@H](NC(=O)c3ccc(/N=N/c4ccccc4)cc3)[C@@H]1C2 | – | – | inhibition in vivo at 1 mg/kg (Cavia porcellus [11]): 60% |
| CC1(C)[C@H]2C[C@H](NC(=O)c3ccc(-c4ccccc4)cc3)[C@@H](C/C=C\CCCC(=O)O)[C@@H]1C2 | > 1000 | 5100 | – |
| CC1(C)[C@H]2C[C@H](C/C=C\CCCC(=O)O)[C@@H](NC(=O)c3ccccc3)[C@@H]1C2 | – | – | inhibition in vivo at 1 mg/kg (Cavia porcellus [11]): 52% |
| CC1(C)[C@H]2C[C@@H](NC(=O)c3ccc(-c4ccccc4)cc3)[C@H](C/C=C\CCCC(=O)O)[C@@H]1C2 | > 1000 | 3600 | – |
| COc1cc(C(=O)N[C@@H]2[C@@H](C/C=C/CCCC(=O)O)C[C@H]3C[C@@H]2C3(C)C)cs1 | 56 | 520 | – |
| CC1(C)[C@H]2C[C@H](C/C=C/CCCC(=O)O)[C@@H](NC(=O)c3csc4ccccc34)[C@@H]1C2 | 22 | 32 | inhibition in vivo at 10 mg/kg (Cavia porcellus [7]): 82% |

| Compound | IC50 [1] [nM] | IC50 [2] [nM] | also measured |
| --- | --- | --- | --- |
| CC1(C)[C@H]2C[C@H](C/C=C/CCCC(=O)O)[C@@H](NC(=O)Cc3ccccc3)[C@@H]1C2 | > 1000 | > 10000 | – |
| CC1(C)[C@H]2C[C@H](C/C=C/CCCC(=O)O)[C@@H](NC(=O)C3CCCCC3)[C@@H]1C2 | > 1000 | > 10000 | – |
| CC1(C)[C@H]2C[C@H](C/C=C/CCCC(=O)O)[C@@H](NC(=O)c3ccc4c(c3)OCO4)[C@@H]1C2 | 170 | 2100 | – |
| CC1(C)[C@H]2C[C@H](C/C=C/CCCC(=O)O)[C@@H](NC(=O)c3csc4ccc(F)cc34)[C@@H]1C2 | 3.2 | 0.42 | Inhibition (Cavia porcellus [4]): 69%; ED50 (Cavia porcellus [5]): 8.9 mg/kg; inhibition in vivo at 3 mg/kg (Cavia porcellus [8]): 86%; ED50 (Cavia porcellus [9]): 3.5 mg/kg |
| CC1(C)[C@H]2C[C@H](C/C=C/CCCC(=O)O)[C@@H](NC(=O)c3cc4ccccc4o3)[C@@H]1C2 | 76 | 690 | – |
| COc1cscc1C(=O)N[C@@H]1[C@@H](C/C=C/CCCC(=O)O)C[C@H]2C[C@@H]1C2(C)C | 230 | 4500 | – |
| CC1(C)[C@H]2C[C@H](C/C=C/CCCC(=O)O)[C@@H](NC(=O)c3ccc4ccccc4c3)[C@@H]1C2 | 73 | – | – |
| COc1ccccc1C(=O)N[C@@H]1[C@@H](C/C=C/CCCC(=O)O)C[C@H]2C[C@@H]1C2(C)C | 320 | 4600 | – |
| Cc1cc(C(=O)N[C@@H]2[C@@H](C/C=C/CCCC(=O)O)C[C@H]3C[C@@H]2C3(C)C)cs1 | 25 | 13 | – |
| CC1(C)[C@H]2C[C@H](C/C=C/CCCC(=O)NS(C)(=O)=O)[C@@H](NC(=O)c3ccsc3)[C@@H]1C2 | 410 | 6000 | – |
| CC1(C)[C@H]2C[C@H](C/C=C/CCCC(=O)O)[C@@H](NC(=O)c3cncs3)[C@@H]1C2 | 500 | > 10000 | – |
| CC1(C)[C@H]2C[C@H](C/C=C/CCCC(=O)O)[C@@H](NC(=O)c3cccnc3)[C@@H]1C2 | – | 330 | – |
| CC1(C)[C@H]2C[C@H](C/C=C/CCCC(=O)O)[C@@H](NC(=O)c3ccc([N+](=O)[O-])cc3)[C@@H]1C2 | 110 | 4400 | – |
| CN(C(=O)c1ccsc1)[C@@H]1[C@@H](C/C=C/CCCC(=O)O)C[C@H]2C[C@@H]1C2(C)C | > 1000 | > 10000 | – |
| CC1(C)[C@H]2C[C@H](C/C=C/CCCC(=O)O)[C@@H](NC(=O)c3cc4ccccc4s3)[C@@H]1C2 | 390 | 19 | – |
| CC1(C)[C@H]2C[C@H](C/C=C/CCCC(=O)O)[C@@H](NC(=O)Cc3ccoc3)[C@@H]1C2 | 17 | 560 | – |
| CC1(C)[C@H]2C[C@H](C/C=C/CCCC(=O)O)[C@@H](NC(=O)c3ccc[nH]3)[C@@H]1C2 | 37 | – | – |
| CN(C(=O)c1ccccc1)[C@@H]1[C@@H](C/C=C/CCCC(=O)O)C[C@H]2C[C@@H]1C2(C)C | > 1000 | > 10000 | – |
| CC1(C)[C@H]2C[C@H](C/C=C/CCCC(=O)O)[C@@H](NC(=O)c3csc4c3CCCC4)[C@@H]1C2 | 35 | 150 | – |
| CC1(C)[C@H]2C[C@H](C/C=C/CCCC(=O)O)[C@@H](NC(=O)c3cccc4ccsc34)[C@@H]1C2 | 5.6 | 26 | inhibition in vivo at 10 mg/kg (Cavia porcellus [7]): 70% |
| CC1(C)[C@H]2C[C@H](C/C=C/CCCC(=O)O)[C@@H](NC(=O)c3csc4cc(O)ccc34)[C@@H]1C2 | 18 | 2.2 | inhibition in vivo at 10 mg/kg (Cavia porcellus [7]): 88% |
